ChEMBL document CHEMBL1212923, “Synthesis and in vivo evaluation of phenethylpiperazine amides: selective 5-hydroxytryptamine(2A) receptor antagonists for the treatment of insomnia” (J Med Chem, 2010)
Calls of active or inactive are those of the source. The calls are words filed in the database; no cut-off is given here.

Columns and labels:
Rhesus monkey = test: Volume of distribution at steady state in monkey at 3 mg/kg, po; type: ADME, organism-based, Macaca mulatta; parameters: dose 3 mg/kg, route oral; details: in vivo
Cytochrome P450 2C9 = Cytochrome P450 2C9 (Homo sapiens, UniProt P11712); test: Inhibition of CYP2C9 in human liver microsomes; type: ADME, Microsome
Chain of Cytochrome P450 2C9 (P11712 whole entry): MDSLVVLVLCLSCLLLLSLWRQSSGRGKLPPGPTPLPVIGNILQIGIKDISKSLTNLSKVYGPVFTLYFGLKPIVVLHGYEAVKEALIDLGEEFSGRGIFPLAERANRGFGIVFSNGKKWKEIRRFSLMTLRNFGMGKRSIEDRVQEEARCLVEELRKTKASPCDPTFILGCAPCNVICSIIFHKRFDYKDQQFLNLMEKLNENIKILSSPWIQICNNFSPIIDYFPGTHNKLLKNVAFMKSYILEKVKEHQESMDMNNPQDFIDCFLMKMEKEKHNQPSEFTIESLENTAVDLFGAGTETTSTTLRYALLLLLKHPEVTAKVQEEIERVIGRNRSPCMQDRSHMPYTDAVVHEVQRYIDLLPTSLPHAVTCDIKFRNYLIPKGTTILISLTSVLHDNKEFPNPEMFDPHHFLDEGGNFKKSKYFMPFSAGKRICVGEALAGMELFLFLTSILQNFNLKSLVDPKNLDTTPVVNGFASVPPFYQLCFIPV

[1] = Half life in Sprague-Dawley rat at 3 mg/kg, po; type: ADME, organism-based; parameters: dose 3 mg/kg, route oral; details: in vivo
[2] = Oral bioavailability in mouse at 3 mg/kg relative to 2 mg/kg, iv dose; type: ADME, organism-based; details: in vivo
[3] = Total clearance in dog at 2 mg/kg, iv; type: ADME, organism-based, Canis lupus familiaris; parameters: dose 2 mg/kg, route intravenous; details: in vivo
[4] = AUClast in Sprague-Dawley rat at 10 mg/kg, po; type: ADME, organism-based; parameters: time 0 - last, dose 10 mg/kg, route oral; details: plasma
[5] = Drug level in Sprague-Dawley rat brain at 0.3 mg/kg, po after 0.75 hrs; type: ADME, organism-based; parameters: dose 0.3 mg/kg, route oral; details: read-out: Drug uptake
Mus musculus [6] = test: Volume of distribution at steady state in mouse at 3 mg/kg, po; type: ADME, organism-based; parameters: dose 3 mg/kg, route oral; details: in vivo
[7] = Total clearance in monkey at 2 mg/kg, iv; type: ADME, organism-based, Macaca mulatta; parameters: dose 2 mg/kg, route intravenous; details: rhesus monkey, in vivo
[8] = Half life in dog at 3 mg/kg, po; type: ADME, organism-based, Canis lupus familiaris; parameters: dose 3 mg/kg, route oral; details: in vivo
[9] = Toxicity in rat assessed as maximum tolerated dose; type: organism-based; details: in vivo
[10] = biological target: Voltage-gated inwardly rectifying potassium channel KCNH2 (Homo sapiens, UniProt Q12809)
Chain of Voltage-gated inwardly rectifying potassium channel KCNH2 (Q12809 whole entry): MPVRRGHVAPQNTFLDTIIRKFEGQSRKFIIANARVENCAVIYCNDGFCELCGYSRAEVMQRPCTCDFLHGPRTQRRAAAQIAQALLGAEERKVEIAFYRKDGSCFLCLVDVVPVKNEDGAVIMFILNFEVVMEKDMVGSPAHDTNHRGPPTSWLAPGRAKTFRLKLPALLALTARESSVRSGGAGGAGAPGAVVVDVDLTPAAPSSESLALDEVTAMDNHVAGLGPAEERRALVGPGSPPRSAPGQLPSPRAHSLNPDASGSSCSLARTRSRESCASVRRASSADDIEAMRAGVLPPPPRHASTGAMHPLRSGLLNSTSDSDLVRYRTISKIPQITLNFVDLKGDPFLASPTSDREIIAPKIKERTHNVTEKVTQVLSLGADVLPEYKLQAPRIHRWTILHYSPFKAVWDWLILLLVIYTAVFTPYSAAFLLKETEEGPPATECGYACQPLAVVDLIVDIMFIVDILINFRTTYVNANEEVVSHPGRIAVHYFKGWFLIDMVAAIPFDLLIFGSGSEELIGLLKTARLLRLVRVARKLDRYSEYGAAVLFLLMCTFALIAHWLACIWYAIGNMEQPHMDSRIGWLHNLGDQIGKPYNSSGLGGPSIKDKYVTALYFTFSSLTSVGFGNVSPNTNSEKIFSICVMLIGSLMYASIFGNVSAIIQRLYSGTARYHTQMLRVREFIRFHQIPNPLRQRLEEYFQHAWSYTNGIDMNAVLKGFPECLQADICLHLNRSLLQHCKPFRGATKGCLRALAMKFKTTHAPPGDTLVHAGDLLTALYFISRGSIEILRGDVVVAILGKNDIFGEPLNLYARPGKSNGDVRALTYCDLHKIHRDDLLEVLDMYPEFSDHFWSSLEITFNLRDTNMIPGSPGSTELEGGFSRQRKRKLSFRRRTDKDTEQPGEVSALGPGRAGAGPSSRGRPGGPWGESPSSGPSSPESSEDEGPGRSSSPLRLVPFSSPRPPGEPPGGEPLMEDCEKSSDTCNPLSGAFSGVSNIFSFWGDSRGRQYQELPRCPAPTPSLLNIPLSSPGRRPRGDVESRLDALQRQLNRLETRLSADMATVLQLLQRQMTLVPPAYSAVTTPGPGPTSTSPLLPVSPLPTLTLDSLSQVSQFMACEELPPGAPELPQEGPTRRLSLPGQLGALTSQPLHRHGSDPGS
Description: Inhibition of human ERG by patch clamp electrophysiology assay

[11] = Oral bioavailability in dog at 3 mg/kg relative to 2 mg/kg, iv dose; type: ADME, organism-based, Canis lupus familiaris; details: in vivo
Rattus norvegicus [12] = test: Toxicity in rat assessed as reduction in locomotor activity at 300 mg/kg by rotarod test; type: organism-based; parameters: dose 300 mg/kg; details: in vivo
Rattus norvegicus [13] = test: Inhibition of DOI-induced hypolocomotion in Sprague-Dawley rat at 0.3 mg/kg, po administered 25 mins before DOI challenge measured after 10 mins; type: functional, organism-based; parameters: dose 0.3 mg/kg
[14] = Protein binding in rat plasma; type: ADME, cell-free; details: read-out: PPB (converted)
[15] = biological target: 5-hydroxytryptamine receptor 2A (Macaca mulatta, UniProt P50128); test: Binding affinity to monkey 5HT2A receptor
Chain of 5-hydroxytryptamine receptor 2A (Macaca mulatta, UniProt P50128) (P50128 whole entry): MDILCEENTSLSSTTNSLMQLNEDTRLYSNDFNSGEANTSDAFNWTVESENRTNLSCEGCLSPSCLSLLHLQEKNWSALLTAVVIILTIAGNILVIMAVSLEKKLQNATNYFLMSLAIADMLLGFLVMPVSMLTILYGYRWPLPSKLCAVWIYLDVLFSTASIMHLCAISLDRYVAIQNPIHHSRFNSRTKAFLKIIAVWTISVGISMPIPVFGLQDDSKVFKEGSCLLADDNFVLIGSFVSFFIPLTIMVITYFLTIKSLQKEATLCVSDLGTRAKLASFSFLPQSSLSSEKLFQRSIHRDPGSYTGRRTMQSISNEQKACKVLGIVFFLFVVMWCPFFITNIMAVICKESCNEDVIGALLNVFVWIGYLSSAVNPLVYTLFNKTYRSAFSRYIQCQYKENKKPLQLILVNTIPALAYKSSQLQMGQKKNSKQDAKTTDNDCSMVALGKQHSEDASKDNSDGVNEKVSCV

[16] = Cmax in Sprague-Dawley rat at 10 mg/kg, po; type: ADME, organism-based; parameters: dose 10 mg/kg, route oral; details: in vivo
[17] = biological target: 5-hydroxytryptamine receptor 2A (Rattus norvegicus, UniProt P14842); test: Binding affinity to rat 5HT2A receptor
Chain of 5-hydroxytryptamine receptor 2A (Rattus norvegicus, UniProt P14842) (P14842 whole entry): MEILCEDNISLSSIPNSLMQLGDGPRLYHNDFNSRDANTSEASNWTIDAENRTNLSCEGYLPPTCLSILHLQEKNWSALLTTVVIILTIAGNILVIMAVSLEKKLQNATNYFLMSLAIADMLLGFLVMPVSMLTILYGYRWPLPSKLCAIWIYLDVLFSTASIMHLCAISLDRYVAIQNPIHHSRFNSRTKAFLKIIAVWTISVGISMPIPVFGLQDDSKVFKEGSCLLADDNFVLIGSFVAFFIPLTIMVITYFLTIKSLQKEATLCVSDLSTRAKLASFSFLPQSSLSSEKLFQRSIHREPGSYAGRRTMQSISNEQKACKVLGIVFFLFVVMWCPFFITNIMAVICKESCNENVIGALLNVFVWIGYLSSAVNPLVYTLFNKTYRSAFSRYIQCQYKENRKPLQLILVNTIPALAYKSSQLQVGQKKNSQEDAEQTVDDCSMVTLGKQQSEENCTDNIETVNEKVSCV

Rattus norvegicus [18] = test: Effect on behavioral activity in Sprague-Dawley rat assessed as increase in deep sleep at 0.1 mg/kg, po after 1 hr; type: functional, organism-based; parameters: dose 0.1 mg/kg
Canis familiaris [19] = test: Toxicity in telemeterized dog assessed as effect on hemodynamics at 10 to 30 mg/kg; type: organism-based, Canis lupus familiaris; parameters: dose 10-30 mg/kg; details: in vivo
[20] = AUClast in mouse at 3 mg/kg, po; type: ADME, organism-based; parameters: time 0 - last, dose 3 mg/kg, route oral; details: plasma
Rattus norvegicus [21] = test: Toxicity in telemeterized rats assessed as effect on hemodynamics at 10 to 30 mg/kg; type: organism-based; parameters: dose 10-30 mg/kg; details: in vivo
Cytochrome P450 2C19 = Cytochrome P450 2C19 (Homo sapiens, UniProt P33261); test: Inhibition of CYP2C19 in human liver microsomes; type: ADME, Microsome
Chain of Cytochrome P450 2C19 (P33261 whole entry): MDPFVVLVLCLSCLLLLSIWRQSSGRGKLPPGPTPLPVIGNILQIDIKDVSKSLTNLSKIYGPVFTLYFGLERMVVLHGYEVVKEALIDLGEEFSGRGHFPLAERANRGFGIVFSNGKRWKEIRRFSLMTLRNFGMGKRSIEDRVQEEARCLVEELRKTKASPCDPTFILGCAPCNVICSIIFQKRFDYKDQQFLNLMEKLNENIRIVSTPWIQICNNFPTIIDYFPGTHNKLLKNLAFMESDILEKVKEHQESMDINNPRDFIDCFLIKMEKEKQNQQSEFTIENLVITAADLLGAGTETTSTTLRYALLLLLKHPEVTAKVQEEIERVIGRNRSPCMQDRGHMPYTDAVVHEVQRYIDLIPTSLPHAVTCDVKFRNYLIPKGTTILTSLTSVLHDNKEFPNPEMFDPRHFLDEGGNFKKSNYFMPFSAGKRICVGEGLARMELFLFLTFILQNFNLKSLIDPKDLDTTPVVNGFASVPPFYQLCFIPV

Rattus norvegicus [22] = test: Cardiotoxicity in telemeterized rat assessed as change in ECG parameter at 10 to 30 mg/kg; type: toxicity, organism-based; parameters: dose 10-30 mg/kg; details: in vivo
[23] = Protein binding in dog plasma; type: ADME, cell-free, Canis lupus familiaris; details: read-out: PPB (converted)
[24] = Cmax in dog at 3 mg/kg, po; type: ADME, organism-based, Canis lupus familiaris; parameters: dose 3 mg/kg, route oral; details: in vivo
Cytochrome P450 1A2 = biological target: T1, Cytochrome P450 1A2 (Homo sapiens, UniProt P05177); test: Inhibition of CYP1A2 in human liver microsomes; type: ADME, Microsome
T1 sequence (P05177 whole entry): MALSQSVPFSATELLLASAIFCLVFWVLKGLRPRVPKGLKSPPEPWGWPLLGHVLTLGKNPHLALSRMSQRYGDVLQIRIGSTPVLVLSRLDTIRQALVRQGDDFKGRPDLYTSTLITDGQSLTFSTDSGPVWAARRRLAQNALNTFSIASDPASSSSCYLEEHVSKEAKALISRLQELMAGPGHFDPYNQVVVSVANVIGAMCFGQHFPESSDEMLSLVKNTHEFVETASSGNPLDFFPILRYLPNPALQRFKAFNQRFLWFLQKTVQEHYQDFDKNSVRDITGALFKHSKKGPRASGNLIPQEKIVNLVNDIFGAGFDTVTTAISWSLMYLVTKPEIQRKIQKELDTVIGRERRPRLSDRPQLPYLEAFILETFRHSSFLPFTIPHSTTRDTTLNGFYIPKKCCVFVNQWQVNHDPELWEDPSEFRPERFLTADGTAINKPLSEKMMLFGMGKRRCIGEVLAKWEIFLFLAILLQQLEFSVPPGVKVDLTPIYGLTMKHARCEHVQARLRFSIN

[25] = Half life in monkey at 3 mg/kg, po; type: ADME, organism-based, Macaca mulatta; parameters: dose 3 mg/kg, route oral; details: rhesus monkey, in vivo
Rattus norvegicus [26] = test: Volume of distribution at steady state in Sprague-Dawley rat at 3 mg/kg, po; type: ADME, organism-based; parameters: dose 3 mg/kg, route oral; details: in vivo
[27] = Total clearance in mouse at 2 mg/kg, iv; type: ADME, organism-based; parameters: dose 2 mg/kg, route intravenous; details: in vivo
[28] = Oral bioavailability in Sprague-Dawley rat at 3 mg/kg relative to 2 mg/kg, iv dose; type: ADME, organism-based; details: in vivo
[29] = Drug level in Sprague-Dawley rat plasma at 0.3 mg/kg, po after 0.75 hrs; type: ADME, organism-based; parameters: dose 0.3 mg/kg, route oral; details: read-out: Drug uptake
[30] = Total clearance in Sprague-Dawley rat at 2 mg/kg, iv; type: ADME, organism-based; parameters: dose 2 mg/kg, route intravenous; details: in vivo
Cytochrome P450 3A4 = Cytochrome P450 3A4 (Homo sapiens, UniProt P08684); test: Inhibition of CYP3A4 in human liver microsomes; type: ADME, Microsome
Chain of Cytochrome P450 3A4 (P08684 whole entry): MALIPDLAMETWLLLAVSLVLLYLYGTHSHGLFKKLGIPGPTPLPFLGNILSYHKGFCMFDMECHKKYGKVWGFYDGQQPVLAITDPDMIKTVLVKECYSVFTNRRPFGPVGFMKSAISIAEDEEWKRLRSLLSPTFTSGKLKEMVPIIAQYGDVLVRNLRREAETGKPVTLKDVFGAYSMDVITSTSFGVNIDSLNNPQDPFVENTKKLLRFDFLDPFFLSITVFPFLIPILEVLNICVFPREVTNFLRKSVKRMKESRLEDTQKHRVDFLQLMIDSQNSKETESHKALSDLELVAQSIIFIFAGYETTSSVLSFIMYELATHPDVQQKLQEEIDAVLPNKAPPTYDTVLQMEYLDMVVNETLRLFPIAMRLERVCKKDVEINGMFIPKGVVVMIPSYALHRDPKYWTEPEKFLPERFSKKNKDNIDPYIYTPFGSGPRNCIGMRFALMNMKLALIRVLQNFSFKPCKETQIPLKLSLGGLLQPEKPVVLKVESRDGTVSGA

Mus musculus [31] = test: Toxicity in mouse assessed as reduction in locomotor activity at 300 mg/kg by rotarod test; type: organism-based; parameters: dose 300 mg/kg; details: in vivo
[32] = AUClast in dog at 3 mg/kg, po; type: ADME, organism-based, Canis lupus familiaris; parameters: dose 3 mg/kg, route oral, time 0 - last; details: plasma
[33] = Ratio of drug level in brain to plasma in Sprague-Dawley rat at 3 mg/kg, po after 0.75 hrs; type: ADME, organism-based; parameters: dose 3 mg/kg, route oral
Cytochrome P450 2D6 = Cytochrome P450 2D6 (Homo sapiens, UniProt P10635); test: Inhibition of CYP2D6 in human liver microsomes; type: ADME, Microsome
Chain of Cytochrome P450 2D6 (P10635 whole entry): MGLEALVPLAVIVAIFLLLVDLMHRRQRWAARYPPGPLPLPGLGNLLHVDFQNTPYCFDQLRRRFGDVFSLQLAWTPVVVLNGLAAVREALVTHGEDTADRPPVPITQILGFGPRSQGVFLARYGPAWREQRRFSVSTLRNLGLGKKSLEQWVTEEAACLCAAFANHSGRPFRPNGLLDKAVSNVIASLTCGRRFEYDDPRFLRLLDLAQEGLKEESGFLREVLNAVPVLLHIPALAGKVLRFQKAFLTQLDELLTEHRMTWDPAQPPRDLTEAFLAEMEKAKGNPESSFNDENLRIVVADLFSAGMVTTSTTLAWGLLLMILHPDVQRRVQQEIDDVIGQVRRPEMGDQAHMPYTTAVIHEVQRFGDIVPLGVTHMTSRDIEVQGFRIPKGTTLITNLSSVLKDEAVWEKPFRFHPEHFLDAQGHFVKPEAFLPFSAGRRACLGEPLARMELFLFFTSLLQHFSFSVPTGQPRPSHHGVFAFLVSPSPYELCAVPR

Canis familiaris [34] = test: Volume of distribution at steady state in dog at 3 mg/kg, po; type: ADME, organism-based, Canis lupus familiaris; parameters: dose 3 mg/kg, route oral; details: in vivo
Rattus norvegicus [35] = test: Effect on behavioral activity in Sprague-Dawley rat assessed as increase in deep sleep at 0.1 mg/kg, po after 3 to 4 hrs; type: functional, organism-based; parameters: dose 0.1 mg/kg
[36] = biological target: 5-hydroxytryptamine receptor 2A (Homo sapiens, UniProt P28223); test: biochemical
Chain of 5-hydroxytryptamine receptor 2A (Homo sapiens, UniProt P28223) (P28223 whole entry): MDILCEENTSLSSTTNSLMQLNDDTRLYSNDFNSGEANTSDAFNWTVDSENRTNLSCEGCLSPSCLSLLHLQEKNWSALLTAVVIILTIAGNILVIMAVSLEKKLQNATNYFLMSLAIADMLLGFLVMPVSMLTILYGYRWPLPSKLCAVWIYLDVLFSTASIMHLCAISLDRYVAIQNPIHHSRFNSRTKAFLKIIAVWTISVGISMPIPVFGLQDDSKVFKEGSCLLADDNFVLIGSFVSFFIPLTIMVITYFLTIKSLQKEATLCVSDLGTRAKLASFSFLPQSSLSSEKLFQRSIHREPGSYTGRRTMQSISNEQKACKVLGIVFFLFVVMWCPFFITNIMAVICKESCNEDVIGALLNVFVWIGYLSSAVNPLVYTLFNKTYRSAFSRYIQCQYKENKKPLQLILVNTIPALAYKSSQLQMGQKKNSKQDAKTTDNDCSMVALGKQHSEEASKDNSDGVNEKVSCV
Description: Displacement of [125I]DOI from human recombinant 5HT2A receptor expressed in HEK293 cells after 1 hr by scintillation counting

[37] = Half life in mouse at 3 mg/kg, po; type: ADME, organism-based; parameters: dose 3 mg/kg, route oral; details: in vivo
[38] = AUClast in monkey at 3 mg/kg, po; type: ADME, organism-based, Macaca mulatta; parameters: time 0 - last, dose 3 mg/kg, route oral; details: rhesus monkey, plasma
[39] = Toxicity in mouse assessed as maximum tolerated dose; type: organism-based; details: in vivo
[40] = biological target: T2, 5-hydroxytryptamine receptor 2C (Homo sapiens, UniProt P28335); type: cell-based, HEK293
T2 sequence (P28335 whole entry): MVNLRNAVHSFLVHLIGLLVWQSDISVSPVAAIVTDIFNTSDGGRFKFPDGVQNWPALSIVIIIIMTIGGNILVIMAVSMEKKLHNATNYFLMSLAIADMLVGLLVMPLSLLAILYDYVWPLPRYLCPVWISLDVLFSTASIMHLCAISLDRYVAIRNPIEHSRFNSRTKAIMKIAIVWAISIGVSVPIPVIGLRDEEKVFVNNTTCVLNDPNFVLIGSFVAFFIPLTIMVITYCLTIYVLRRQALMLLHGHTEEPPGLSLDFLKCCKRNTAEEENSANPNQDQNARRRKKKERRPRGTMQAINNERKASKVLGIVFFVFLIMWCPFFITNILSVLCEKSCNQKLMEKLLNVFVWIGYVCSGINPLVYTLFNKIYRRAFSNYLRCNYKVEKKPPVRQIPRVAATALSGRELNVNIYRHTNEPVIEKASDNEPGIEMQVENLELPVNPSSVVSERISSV

[41] = Ratio of drug level in brain to plasma in Sprague-Dawley rat at 0.3 mg/kg, po after 0.75 hrs; type: ADME, organism-based; parameters: dose 0.3 mg/kg, route oral
Canis familiaris [42] = test: Cardiotoxicity in telemeterized dog assessed as change in ECG parameter at 10 to 30 mg/kg; type: toxicity, organism-based, Canis lupus familiaris; parameters: dose 10-30 mg/kg; details: in vivo
[43] = biological target: 5-hydroxytryptamine receptor 2A (Canis lupus familiaris, UniProt O46635); test: Binding affinity to dog 5HT2A receptor
Chain of 5-hydroxytryptamine receptor 2A (Canis lupus familiaris, UniProt O46635) (O46635 whole entry): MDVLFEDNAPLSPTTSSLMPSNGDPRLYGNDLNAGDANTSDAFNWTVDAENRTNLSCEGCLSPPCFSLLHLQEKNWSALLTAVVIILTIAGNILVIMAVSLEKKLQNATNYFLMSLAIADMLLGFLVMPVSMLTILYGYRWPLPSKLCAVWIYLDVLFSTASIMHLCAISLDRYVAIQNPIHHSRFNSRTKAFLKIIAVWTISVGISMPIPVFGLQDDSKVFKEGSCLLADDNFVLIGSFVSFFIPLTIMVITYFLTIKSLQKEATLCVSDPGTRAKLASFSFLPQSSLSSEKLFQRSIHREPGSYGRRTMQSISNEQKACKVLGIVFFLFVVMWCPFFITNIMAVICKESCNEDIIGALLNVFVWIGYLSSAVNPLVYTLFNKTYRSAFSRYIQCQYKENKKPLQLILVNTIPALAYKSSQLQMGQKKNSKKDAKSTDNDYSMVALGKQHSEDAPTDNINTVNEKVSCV

[44] = Oral bioavailability in monkey at 3 mg/kg relative to 2 mg/kg, iv dose; type: ADME, organism-based, Macaca mulatta; details: rhesus monkey, in vivo
[45] = Cmax in mouse at 3 mg/kg, po; type: ADME, organism-based; parameters: dose 3 mg/kg, route oral; details: in vivo
[46] = Cmax in monkey at 3 mg/kg, po; type: ADME, organism-based, Macaca mulatta; parameters: dose 3 mg/kg, route oral; details: rhesus monkey, in vivo
Rattus norvegicus [47] = test: Effect on behavioral activity in po dosed Sprague-Dawley rat assessed as increase in sleep consolidation after 5 hrs; type: functional, organism-based

Cn1cc(Cl)c(C(=O)N2CCN(CC(=O)c3ccc(F)cc3)CC2)n1
Vdss (Rhesus monkey): 0.4 L/kg | inhibition (INH) (Cytochrome P450 2C9): Not Active | half-life [1]: 2 h | bioavailability [2]: 87% | clearance [3]: 15 mL/min/kg | AUC(0-t) [4]: 1180 ng·h/mL | concentration at 0.75 h [5]: 23.3 ng/mL | Vdss (Mus musculus [6]): 1.7 L/kg | clearance [7]: 15 mL/min/kg | half-life [8]: 5.2 h | MTD [9]: 300 mg/kg | IC50 [10]: 30000 nM | bioavailability [11]: 94% | Activity (Rattus norvegicus [12]): Toxic | inhibition (Rattus norvegicus [13]): Active | fraction unbound [14]: 0.49 | Ki [15]: 1.7 nM | Cmax [16]: 1040 ng/mL | Ki [17]: 2.4 nM | Activity (Rattus norvegicus [18]): Active | Activity (Canis familiaris [19]): Non-toxic | AUC(0-t) [20]: 459 ng·h/mL | Activity (Rattus norvegicus [21]): Non-toxic | inhibition (INH) (Cytochrome P450 2C19): Not Active | Activity (Rattus norvegicus [22]): Non-toxic | fraction unbound [23]: 0.39 | Cmax [24]: 1260 ng/mL | inhibition (INH) (Cytochrome P450 1A2): Not Active | half-life [25]: 0.6 h | Vdss (Rattus norvegicus [26]): 1.7 L/kg | clearance [27]: 93.3 mL/min/kg | bioavailability [28]: 67% | concentration at 0.75 h [29]: 19.6 ng/mL | clearance [30]: 93.3 mL/min/kg | inhibition (INH) (Cytochrome P450 3A4): Not Active | Activity (Mus musculus [31]): Toxic | AUC(0-t) [32]: 2940 ng·h/mL | Kp at 0.75 h [33]: 1.18 | inhibition (INH) (Cytochrome P450 2D6): Not Active | Vdss (Canis familiaris [34]): 1.9 L/kg | Activity (Rattus norvegicus [35]): Active | Ki [36]: 3.7 nM | half-life [37]: 0.5 h | AUC(0-t) [38]: 872 ng·h/mL | MTD [39]: 300 mg/kg | Ki [40]: 1410 nM | Kp at 0.75 h [41]: 1.18 | Activity (Canis familiaris [42]): Non-toxic | Ki [43]: 2.7 nM | bioavailability [44]: 26% | Cmax [45]: 718 ng/mL | Cmax [46]: 600 ng/mL | Activity (Rattus norvegicus [47]): Dose-dependent effect
